Measured values: patent US9801889B2, “Bicyclic heterocycles as FGFR4 inhibitors” (Incyte Corporation, priority 2015, dated 2017)

Columns and labels:
Details in all cases: IC50 ratio showing FGFR4 selectivity
FGFR2 = FGFR2 (Homo sapiens (Human), UniProt P21802); assay: FGFR Enzymatic Assay (FRET peptide phosphorylation), FGFR2
Text: (§1) The enzymes were purchased from Millipore or Invitrogen.
(§2) GraphPad prism3 was used to analyze the data. The IC50 values were derived by fitting the data to the equation for a sigmoidal dose-response with a variable slope. Y=Bottom+(Top-Bottom)/(1+10^((LogIC50-X)*HillSlope)) where X is the logarithm of concentration and Y is the response.

FGFR1 = FGFR1 (Homo sapiens (Human), UniProt P11362); assay: FGFR Enzymatic Assay (FRET peptide phosphorylation), FGFR1
Text: as §1, §2

FGFR3 = FGFR3 (Homo sapiens (Human), UniProt P22607); assay: FGFR Enzymatic Assay (FRET peptide phosphorylation), FGFR3
Chain of FGFR3 (P22607 23-806): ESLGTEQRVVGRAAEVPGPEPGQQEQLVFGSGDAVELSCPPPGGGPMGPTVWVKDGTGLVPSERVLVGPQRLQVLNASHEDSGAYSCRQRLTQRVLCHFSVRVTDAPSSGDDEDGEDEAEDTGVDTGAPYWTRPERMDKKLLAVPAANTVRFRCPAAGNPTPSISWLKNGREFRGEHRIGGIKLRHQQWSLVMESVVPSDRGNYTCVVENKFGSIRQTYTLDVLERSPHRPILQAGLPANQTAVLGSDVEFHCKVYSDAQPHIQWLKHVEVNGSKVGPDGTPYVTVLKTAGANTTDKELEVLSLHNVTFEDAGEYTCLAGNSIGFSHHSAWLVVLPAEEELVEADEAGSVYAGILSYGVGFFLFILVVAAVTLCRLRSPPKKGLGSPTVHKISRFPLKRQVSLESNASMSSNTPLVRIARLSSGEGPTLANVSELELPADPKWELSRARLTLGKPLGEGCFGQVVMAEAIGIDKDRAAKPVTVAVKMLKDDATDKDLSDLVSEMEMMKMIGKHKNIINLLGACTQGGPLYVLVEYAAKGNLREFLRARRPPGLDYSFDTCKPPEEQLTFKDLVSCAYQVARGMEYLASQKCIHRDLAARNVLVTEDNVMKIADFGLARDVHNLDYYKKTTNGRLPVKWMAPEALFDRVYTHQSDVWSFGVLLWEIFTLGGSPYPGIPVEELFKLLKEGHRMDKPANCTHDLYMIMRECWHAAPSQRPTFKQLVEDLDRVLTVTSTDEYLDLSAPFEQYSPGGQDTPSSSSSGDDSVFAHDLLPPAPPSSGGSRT
Text: as §1, §2

[1] = pre-incubated for 5 to 10 minutes

Chain of FGFR2 (P21802 22-821): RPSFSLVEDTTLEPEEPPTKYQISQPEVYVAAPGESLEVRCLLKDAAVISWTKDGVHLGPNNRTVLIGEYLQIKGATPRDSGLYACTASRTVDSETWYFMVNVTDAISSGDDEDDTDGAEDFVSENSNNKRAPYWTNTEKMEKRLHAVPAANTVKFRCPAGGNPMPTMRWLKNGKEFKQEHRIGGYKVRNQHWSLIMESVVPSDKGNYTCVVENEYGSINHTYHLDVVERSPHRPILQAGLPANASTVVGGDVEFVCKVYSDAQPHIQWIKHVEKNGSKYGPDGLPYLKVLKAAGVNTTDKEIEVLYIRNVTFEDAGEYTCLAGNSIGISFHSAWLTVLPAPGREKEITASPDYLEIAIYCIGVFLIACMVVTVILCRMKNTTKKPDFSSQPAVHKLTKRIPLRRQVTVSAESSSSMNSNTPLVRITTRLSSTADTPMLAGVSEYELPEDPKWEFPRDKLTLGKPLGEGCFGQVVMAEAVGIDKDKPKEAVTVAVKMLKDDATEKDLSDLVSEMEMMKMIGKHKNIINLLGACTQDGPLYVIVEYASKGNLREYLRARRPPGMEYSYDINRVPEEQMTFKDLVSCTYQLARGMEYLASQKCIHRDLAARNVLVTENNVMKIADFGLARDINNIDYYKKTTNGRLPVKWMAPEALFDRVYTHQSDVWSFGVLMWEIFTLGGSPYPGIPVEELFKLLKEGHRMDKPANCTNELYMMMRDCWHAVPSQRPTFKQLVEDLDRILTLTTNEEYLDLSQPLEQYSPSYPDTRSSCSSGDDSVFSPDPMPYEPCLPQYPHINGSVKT
Chain of FGFR1 (P11362 22-822): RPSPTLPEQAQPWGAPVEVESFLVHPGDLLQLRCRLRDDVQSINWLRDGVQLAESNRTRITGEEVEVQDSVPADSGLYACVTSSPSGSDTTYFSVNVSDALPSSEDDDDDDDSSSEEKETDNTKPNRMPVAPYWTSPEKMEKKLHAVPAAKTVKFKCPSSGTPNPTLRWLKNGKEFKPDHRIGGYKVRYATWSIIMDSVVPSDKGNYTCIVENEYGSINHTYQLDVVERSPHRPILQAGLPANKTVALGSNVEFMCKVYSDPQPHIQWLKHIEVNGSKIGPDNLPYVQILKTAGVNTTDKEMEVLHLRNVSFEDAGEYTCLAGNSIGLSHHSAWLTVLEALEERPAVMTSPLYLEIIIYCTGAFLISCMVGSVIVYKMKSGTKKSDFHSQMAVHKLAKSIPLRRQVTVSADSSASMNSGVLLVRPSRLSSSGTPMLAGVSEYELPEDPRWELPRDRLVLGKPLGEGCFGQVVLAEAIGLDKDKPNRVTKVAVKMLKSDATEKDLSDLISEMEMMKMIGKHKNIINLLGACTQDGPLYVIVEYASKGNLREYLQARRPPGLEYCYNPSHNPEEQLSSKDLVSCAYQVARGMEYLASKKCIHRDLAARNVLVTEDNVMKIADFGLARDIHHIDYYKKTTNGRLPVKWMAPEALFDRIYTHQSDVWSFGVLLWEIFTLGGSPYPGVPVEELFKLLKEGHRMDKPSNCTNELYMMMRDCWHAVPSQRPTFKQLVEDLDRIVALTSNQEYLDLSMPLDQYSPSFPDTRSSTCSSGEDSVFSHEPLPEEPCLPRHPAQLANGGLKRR

Row | SMILES | FGFR2/FGFR4 (FGFR2; pre-incubated for 4 hours) | FGFR1/FGFR4 (FGFR1; pre-incubated for 4 hours) | FGFR3/FGFR4 (FGFR3; pre-incubated for 4 hours) | FGFR2/FGFR4 (FGFR2; [1]) | FGFR1/FGFR4 (FGFR1; [1]) | FGFR3/FGFR4 (FGFR3; [1])
1 | C=CC(=O)Nc1cnn(CC2CCOCC2)c1-c1cc2c(cn1)CN(c1c(F)c(OC)cc(OC)c1F)C(=O)C21CC1 [Example 24, N-(5-(2′-(2,6-difluoro-3,5-dimethoxyphenyl)-3′-oxo-2′,3′-dihydro-1′H-spiro[cyclopropane-1,4′-[2,7]naphthyridine]-6′-yl)-1-((tetrahydro-2H-pyran-4-yl)methyl)-1H-pyrazol-4-yl)acrylamide] | >100 | >100 | >100 |  |  | 
2 | C=CC(=O)Nc1cnn(Cc2cccnc2)c1-c1cc2c(cn1)CN(c1c(F)c(OC)cc(OC)c1F)C(=O)C21CC1 [Example 22, N-(5-(2′-(2,6-difluoro-3,5-dimethoxyphenyl)-3′-oxo-2′,3′-dihydro-1′H-spiro[cyclopropane-1,4′-[2,7]naphthyridine]-6′-yl)-1-(pyridin-3-ylmethyl)-1H-pyrazol-4-yl)acrylamide] | >100 | >100 | >100 |  |  | 
3 | C=CC(=O)Nc1cc(CN2CCOCC2)cc(-c2cc3c(cn2)CN(c2c(F)c(OC)cc(OC)c2F)C(=O)C32CC2)c1 [Example 11, N-[3-[2′-(2,6-difluoro-3,5-dimethoxyphenyl)-3′-oxo-2′,3′-dihydro-1′H-spiro[cyclopropane-1,4′-[2,7]naphthyridin]-6′-yl]-5-(morpholin-4-ylmethyl)phenyl]acrylamide] | >100 | >100 | >100 | >100 | >100 | >100
4 | C=CC(=O)Nc1cnn(Cc2ccon2)c1-c1cc2c(cn1)CN(c1c(F)c(OC)cc(OC)c1F)C(=O)C21CC1 [Example 25, N-(5-(2′-(2,6-difluoro-3,5-dimethoxyphenyl)-3′-oxo-2′,3′-dihydro-1′H-spiro[cyclopropane-1,4′-[2,7]naphthyridine]-6′-yl)-1-(isoxazol-3-ylmethyl)-1H-pyrazol-4-yl)acrylamide] | >100 | >100 | >100 |  |  | 
5 | C=CC(=O)Nc1cnn(Cc2ccnn2C)c1-c1cc2c(cn1)CN(c1c(F)c(OC)cc(OC)c1F)C(=O)C21CC1 [Example 26, N-(5-(2′-(2,6-difluoro-3,5-dimethoxyphenyl)-3′-oxo-2′,3′-dihydro-1′H-spiro[cyclopropane-1,4′-[2,7]naphthyridine]-6′-yl)-1-((1-methyl-1H-pyrazol-5-yl)methyl)-1H-pyrazol-4-yl)acrylamide] | >50 | >100 | >100 |  |  | 
6 | C=CC(=O)Nc1cnn(Cc2ncn(C)n2)c1-c1cc2c(cn1)CN(c1c(F)c(OC)cc(OC)c1F)C(=O)C21CC1 [Example 23, N-(5-(2′-(2,6-difluoro-3,5-dimethoxyphenyl)-3′-oxo-2′,3′-dihydro-1′H-spiro[cyclopropane-1,4′-[2,7]naphthyridine]-6′-yl)-1-((1-methyl-1H-1,2,4-triazol-3-yl)methyl)-1H-pyrazol-4-yl)acrylamide] | >100 | >100 | >100 |  |  | 
7 | C=CC(=O)Nc1ccc(C)c(-c2cc3c(cn2)CN(c2c(F)c(OC)cc(OC)c2F)C(=O)C32CC2)c1 [Example 2, N-(3-(2′-(2,6-difluoro-3,5-dimethoxyphenyl)-3′-oxo-2′,3′-dihydro-1′H-spiro[cyclopropane-1,4′-[2,7]naphthyridine]-6′-yl)-4-methylphenyl)acrylamide] | >100 | >100 | >100 | >100 | >100 | >100
8 | C=CC(=O)Nc1cnn(Cc2ccncc2)c1-c1cc2c(cn1)CN(c1c(F)c(OC)cc(OC)c1F)C(=O)C21CC1 [Example 21, N-(5-(2′-(2,6-difluoro-3,5-dimethoxyphenyl)-3′-oxo-2′,3′-dihydro-1′H-spiro[cyclopropane-1,4′-[2,7]naphthyridine]-6′-yl)-1-(pyridin-4-ylmethyl)-1H-pyrazol-4-yl)acrylamide] | >50 | >100 | >100 |  |  | 
9 | C=CC(=O)Nc1cnn(Cc2cnn(C)c2)c1-c1cc2c(cn1)CN(c1c(F)c(OC)cc(OC)c1F)C(=O)C21CC1 [Example 27, N-(5-(2′-(2,6-difluoro-3,5-dimethoxyphenyl)-3′-oxo-2′,3′-dihydro-1′H-spiro[cyclopropane-1,4′-[2,7]naphthyridine]-6′-yl)-1-((1-methyl-1H-pyrazol-4-yl)methyl)-1H-pyrazol-4-yl)acrylamide] | >100 | >100 | >100 |  |  | 
10 | C=CC(=O)Nc1ccc(C#N)c(-c2cc3c(cn2)CN(c2c(F)c(OC)cc(OC)c2F)C(=O)C32CC2)c1 [Example 5, N-(4-cyano-3-(2′-(2,6-difluoro-3,5-dimethoxyphenyl)-3′-oxo-2′,3′-dihydro-1′H-spiro[cyclopropane-1,4′-[2,7]naphthyridine]-6′-yl)phenyl)acrylamide] | >100 | >100 | >100 | >100 | >100 | >100

Other lines, results leading:

Row | FGFR2/FGFR4 (FGFR2; pre-incubated for 4 hours) | FGFR1/FGFR4 (FGFR1; pre-incubated for 4 hours) | FGFR3/FGFR4 (FGFR3; pre-incubated for 4 hours) | FGFR2/FGFR4 (FGFR2; [1]) | FGFR1/FGFR4 (FGFR1; [1]) | FGFR3/FGFR4 (FGFR3; [1]) | SMILES
11 | >100 | >100 | >100 |  |  |  | C=CC(=O)Nc1cnn(C[C@@H]2CCCO2)c1-c1cc2c(cn1)CN(c1c(F)c(OC)cc(OC)c1F)C(=O)C21CC1 [Example 31, (S)-N-(5-(2′-(2,6-difluoro-3,5-dimethoxyphenyl)-3′-oxo-2′,3′-dihydro-1′H-spiro[cyclopropane-1,4′-[2,7]naphthyridine]-6′-yl)-1-((tetrahydrofuran-2-yl)methyl)-1H-pyrazol-4-yl)acrylamide]
12 | >100 | >100 | >100 |  |  |  | C=CC(=O)Nc1cnn(C[C@@H]2CCOC2)c1-c1cc2c(cn1)CN(c1c(F)c(OC)cc(OC)c1F)C(=O)C21CC1 [Example 28, (S)-N-(5-(2′-(2,6-difluoro-3,5-dimethoxyphenyl)-3′-oxo-2′,3′-dihydro-1′H-spiro[cyclopropane-1,4′-[2,7]naphthyridine]-6′-yl)-1-((tetrahydrofuran-3-yl)methyl)-1H-pyrazol-4-yl)acrylamide]
13 | >100 | >100 | >100 |  |  |  | C=CC(=O)Nc1cn(CCOC(F)(F)F)nc1-c1cc2c(cn1)CN(c1c(F)c(OC)cc(OC)c1F)C(=O)C21CC1 [Example 33, N-(3-(2′-(2,6-difluoro-3,5-dimethoxyphenyl)-3′-oxo-2′,3′-dihydro-1′H-spiro[cyclopropane-1,4′-[2,7]naphthyridine]-6′-yl)-1-(2-(trifluoromethoxy)ethyl)-1H-pyrazol-4-yl)acrylamide]
14 | >100 | >100 | >100 |  |  |  | C=CC(=O)Nc1ccc(C)c(-c2ncc3c(n2)C2(CC2)C(=O)N(c2c(F)c(OC)cc(OC)c2F)C3)c1 [Example 37, N-(3-(6′-(2,6-difluoro-3,5-dimethoxyphenyl)-7′-oxo-6′,7′-dihydro-5′H-spiro[cyclopropane-1,8′-pyrido[4,3-d]pyrimidine]-2′-yl)-4-methylphenyl)acrylamide]
15 | >100 | >100 | >100 |  |  |  | C=CC(=O)Nc1cnn(C[C@H]2CCCO2)c1-c1cc2c(cn1)CN(c1c(F)c(OC)cc(OC)c1F)C(=O)C21CC1 [Example 30]
